According to ChEMBL document CHEMBL1135259, “Azapeptides as inhibitors of the hepatitis C virus NS3 serine protease” (Bioorg Med Chem Lett, 2002):

Target: NS3 (Hepatitis C virus, UniProt A3EZJ3)
Experiment: Binding affinity against Hepatitis C virus NS3 protease
Parameters: species or system Hepacivirus hominis

Sequence of NS3 (A3EZJ3 whole entry): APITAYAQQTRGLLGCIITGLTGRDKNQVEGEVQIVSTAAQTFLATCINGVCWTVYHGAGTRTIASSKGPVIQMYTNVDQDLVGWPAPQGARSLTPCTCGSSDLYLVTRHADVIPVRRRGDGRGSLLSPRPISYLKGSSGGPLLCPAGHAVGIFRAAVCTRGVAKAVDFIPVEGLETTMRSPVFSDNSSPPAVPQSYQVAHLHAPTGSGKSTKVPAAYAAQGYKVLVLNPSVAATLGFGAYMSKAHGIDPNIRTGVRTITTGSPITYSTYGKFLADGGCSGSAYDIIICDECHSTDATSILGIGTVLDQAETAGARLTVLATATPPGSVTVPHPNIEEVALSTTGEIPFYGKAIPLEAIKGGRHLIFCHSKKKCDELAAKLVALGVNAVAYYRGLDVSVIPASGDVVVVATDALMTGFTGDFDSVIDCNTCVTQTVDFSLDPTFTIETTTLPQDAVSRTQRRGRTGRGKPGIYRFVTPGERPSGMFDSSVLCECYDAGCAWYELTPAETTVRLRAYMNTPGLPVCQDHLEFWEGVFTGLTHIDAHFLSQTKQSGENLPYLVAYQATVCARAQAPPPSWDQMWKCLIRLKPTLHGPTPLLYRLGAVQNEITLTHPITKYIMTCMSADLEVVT

Row | Ki [µM] | Structure (SMILES)
1 | > 100 | CCCN(NC(=O)[C@H]1CCCN1C(=O)[C@@H](NC(=O)[C@@H](NC(=O)[C@H](CC(=O)O)NC(=O)[C@H](CCC(=O)O)NC(=O)[C@@H](NC(=O)[C@H](CC(=O)O)NC(C)=O)[C@@H](C)O)C(C)C)C(C)C)C(=O)c1ccc([N+](=O)[O-])cc1
2 | 80 | CCCN(NC(=O)[C@H]1CCCN1C(=O)[C@@H](NC(=O)[C@@H](NC(=O)[C@H](CC(=O)O)NC(=O)[C@H](CCC(=O)O)NC(=O)[C@@H](NC(=O)[C@H](CC(=O)O)NC(C)=O)[C@@H](C)O)C(C)C)C(C)C)C(=O)OCc1ccccc1
3 | 14 | CCCN(NC(=O)[C@H]1CCCN1C(=O)[C@@H](NC(=O)[C@@H](NC(=O)[C@H](CC(=O)O)NC(=O)[C@H](CCC(=O)O)NC(=O)[C@@H](NC(=O)[C@H](CC(=O)O)NC(C)=O)[C@@H](C)O)C(C)C)C(C)C)C(=O)OCC(Cl)(Cl)Cl
4 | 0.2 | CCCN(NC(=O)[C@H]1CCCN1C(=O)[C@@H](NC(=O)[C@@H](NC(=O)[C@H](CC(=O)O)NC(=O)[C@H](CCC(=O)O)NC(=O)[C@@H](NC(=O)[C@H](CC(=O)O)NC(C)=O)[C@@H](C)O)C(C)C)C(C)C)C(=O)OC(Cl)C(Cl)(Cl)Cl (some centres undefined)
5 | 45 | CCCN(NC(=O)[C@H]1CCCN1C(=O)[C@@H](NC(=O)[C@@H](NC(=O)[C@H](CC(=O)O)NC(=O)[C@H](CCC(=O)O)NC(=O)[C@@H](NC(=O)[C@H](CC(=O)O)NC(C)=O)[C@@H](C)O)C(C)C)C(C)C)C(=O)OCc1ccc([N+](=O)[O-])cc1
6 | > 100 | CCCN(NC(=O)[C@H]1CCCN1C(=O)[C@@H](NC(=O)[C@@H](NC(=O)[C@H](CC(=O)O)NC(=O)[C@H](CCC(=O)O)NC(=O)[C@@H](NC(=O)[C@H](CC(=O)O)NC(C)=O)[C@@H](C)O)C(C)C)C(C)C)C(=O)c1ccc(C#N)cc1
7 | > 100 | CCCC(=O)N(CCC)NC(=O)[C@H]1CCCN1C(=O)[C@@H](NC(=O)[C@@H](NC(=O)[C@H](CC(=O)O)NC(=O)[C@H](CCC(=O)O)NC(=O)[C@@H](NC(=O)[C@H](CC(=O)O)NC(C)=O)[C@@H](C)O)C(C)C)C(C)C
8 | > 100 | CCCN(NC(=O)[C@H]1CCCN1C(=O)[C@@H](NC(=O)[C@@H](NC(=O)[C@H](CC(=O)O)NC(=O)[C@H](CCC(=O)O)NC(=O)[C@@H](NC(=O)[C@H](CC(=O)O)NC(C)=O)[C@@H](C)O)C(C)C)C(C)C)C(=O)OC(C)(C)C(Cl)(Cl)Cl
9 | > 100 | CCCN(NC(=O)[C@H]1CCCN1C(=O)[C@@H](NC(=O)[C@@H](NC(=O)[C@H](CC(=O)O)NC(=O)[C@H](CCC(=O)O)NC(=O)[C@@H](NC(=O)[C@H](CC(=O)O)NC(C)=O)[C@@H](C)O)C(C)C)C(C)C)C(=O)c1cc([N+](=O)[O-])cc([N+](=O)[O-])c1
10 | > 100 | CCCN(NC(=O)[C@H]1CCCN1C(=O)[C@@H](NC(=O)[C@@H](NC(=O)[C@H](CC(=O)O)NC(=O)[C@H](CCC(=O)O)NC(=O)[C@@H](NC(=O)[C@H](CC(=O)O)NC(C)=O)[C@@H](C)O)C(C)C)C(C)C)C(=O)CCl
11 | 160 | CCCN(NC(=O)[C@H]1CCCN1C(=O)[C@@H](NC(=O)[C@@H](NC(=O)[C@H](CC(=O)O)NC(=O)[C@H](CCC(=O)O)NC(=O)[C@@H](NC(=O)[C@H](CC(=O)O)NC(C)=O)[C@@H](C)O)C(C)C)C(C)C)C(=O)Sc1ccccc1
12 | > 100 | CCCN(NC(=O)[C@H]1CCCN1C(=O)[C@@H](NC(=O)[C@@H](NC(=O)[C@H](CC(=O)O)NC(=O)[C@H](CCC(=O)O)NC(=O)[C@@H](NC(=O)[C@H](CC(=O)O)NC(C)=O)[C@@H](C)O)C(C)C)C(C)C)S(=O)(=O)CCl
13 | > 100 | CCCN(NC(=O)[C@H]1CCCN1C(=O)[C@@H](NC(=O)[C@@H](NC(=O)[C@H](CC(=O)O)NC(=O)[C@H](CCC(=O)O)NC(=O)[C@@H](NC(=O)[C@H](CC(=O)O)NC(C)=O)[C@@H](C)O)C(C)C)C(C)C)C(=O)c1ccc(C(F)(F)F)cc1
14 | 100 | CCCN(NC(=O)[C@H]1CCCN1C(=O)[C@@H](NC(=O)[C@@H](NC(=O)[C@H](CC(=O)O)NC(=O)[C@H](CCC(=O)O)NC(=O)[C@@H](NC(=O)[C@H](CC(=O)O)NC(C)=O)[C@@H](C)O)C(C)C)C(C)C)C(=O)Sc1ccc(Cl)cc1
15 | > 100 | CCCN(NC(=O)[C@H]1CCCN1C(=O)[C@@H](NC(=O)[C@@H](NC(=O)[C@H](CC(=O)O)NC(=O)[C@H](CCC(=O)O)NC(=O)[C@@H](NC(=O)[C@H](CC(=O)O)NC(C)=O)[C@@H](C)O)C(C)C)C(C)C)C(=O)C(=O)OCC
16 | 0.9 | CCN(NC(=O)[C@H]1CCCN1C(=O)[C@@H](NC(=O)[C@@H](NC(=O)[C@H](CC(=O)O)NC(=O)[C@H](CCC(=O)O)NC(=O)[C@@H](NC(=O)[C@H](CC(=O)O)NC(C)=O)[C@@H](C)O)C(C)C)C(C)C)C(=O)OC(Cl)C(Cl)(Cl)Cl (some centres undefined)
17 | > 100 | CCCN(NC(=O)[C@H]1CCCN1C(=O)[C@@H](NC(=O)[C@@H](NC(=O)[C@H](CC(=O)O)NC(=O)[C@H](CCC(=O)O)NC(=O)[C@@H](NC(=O)[C@H](CC(=O)O)NC(C)=O)[C@@H](C)O)C(C)C)C(C)C)C(=O)c1cc(C(F)(F)F)cc(C(F)(F)F)c1
18 | > 100 | CCCN(NC(=O)[C@H]1CCCN1C(=O)[C@@H](NC(=O)[C@@H](NC(=O)[C@H](CC(=O)O)NC(=O)[C@H](CCC(=O)O)NC(=O)[C@@H](NC(=O)[C@H](CC(=O)O)NC(C)=O)[C@@H](C)O)C(C)C)C(C)C)C(=O)c1c(F)c(F)c(F)c(F)c1F
19 | > 100 | CCCN(NC(=O)[C@H]1CCCN1C(=O)[C@@H](NC(=O)[C@@H](NC(=O)[C@H](CC(=O)O)NC(=O)[C@H](CCC(=O)O)NC(=O)[C@@H](NC(=O)[C@H](CC(=O)O)NC(C)=O)[C@@H](C)O)C(C)C)C(C)C)C(=O)CC

Continued, molecule first:

Row | Structure (SMILES) | Ki [µM]
20 | CCCN(NC(=O)[C@H]1CCCN1C(=O)[C@@H](NC(=O)[C@@H](NC(C)=O)C(C)C)C(C)C)C(=O)Oc1ccc([N+](=O)[O-])cc1 | 100
21 | CCCN(NC(=O)[C@H]1CCCN1C(=O)[C@@H](NC(=O)[C@@H](NC(=O)[C@H](CC(=O)O)NC(=O)[C@H](CCC(=O)O)NC(=O)[C@@H](NC(=O)[C@@H](N)CC(=O)O)[C@@H](C)O)C(C)C)C(C)C)C(=O)N[C@@H](CO)C(=O)N[C@@H](CCSC)C(=O)N[C@@H](CO)C(=O)N[C@@H](Cc1ccc(O)cc1)C(=O)N[C@H](C(=O)N[C@@H](Cc1c[nH]c2ccccc12)C(=O)N[C@H](C(=O)NCC(=O)N[C@@H](CCCCN)C(=O)O)[C@@H](C)O)[C@@H](C)O | 20
22 | CCCN(NC(=O)[C@H]1CCCN1C(=O)[C@@H](NC(=O)[C@@H](NC(=O)[C@H](CC(=O)O)NC(=O)[C@H](CCC(=O)O)NC(C)=O)C(C)C)C(C)C)C(=O)N[C@@H](CO)C(=O)N[C@@H](CCSC)C(=O)N[C@@H](CO)C(N)=O | 200
23 | CCCN(NC(=O)[C@H]1CCCN1C(=O)[C@@H](NC(=O)[C@@H](NC(=O)[C@H](CC(=O)O)NC(=O)[C@H](CCC(=O)O)NC(=O)[C@@H](NC(=O)[C@H](CC(=O)O)NC(C)=O)[C@@H](C)O)C(C)C)C(C)C)C(=O)Oc1ccccc1[N+](=O)[O-] | 9
24 | CCCN(NC(=O)[C@H]1CCCN1C(=O)[C@@H](NC(=O)[C@@H](NC(=O)[C@H](CC(=O)O)NC(=O)[C@H](CCC(=O)O)NC(=O)[C@@H](NC(=O)[C@H](CC(=O)O)NC(C)=O)[C@@H](C)O)C(C)C)C(C)C)C(=O)c1ccc(S(=O)(=O)F)cc1 | > 100
25 | CCCN(NC(=O)[C@H]1CCCN1C(=O)[C@@H](NC(=O)[C@@H](NC(=O)[C@H](CC(=O)O)NC(=O)[C@H](CCC(=O)O)NC(=O)[C@@H](NC(=O)[C@H](CC(=O)O)NC(C)=O)[C@@H](C)O)C(C)C)C(C)C)C(=O)Oc1ccc(Cl)cc1 | 16
26 | CCCN(NC(=O)[C@H]1CCCN1C(=O)[C@@H](NC(=O)[C@@H](NC(=O)[C@H](CC(=O)O)NC(=O)[C@H](CCC(=O)O)NC(=O)[C@@H](NC(=O)[C@H](CC(=O)O)NC(C)=O)[C@@H](C)O)C(C)C)C(C)C)C(=O)c1ccc(-c2ccccc2)cc1 | > 100
27 | CCCN(NC(=O)[C@H]1CCCN1C(=O)[C@@H](NC(=O)[C@@H](NC(=O)[C@H](CC(=O)O)NC(C)=O)C(C)C)C(C)C)C(=O)Oc1ccc([N+](=O)[O-])cc1 | 7
28 | CCCN(NC(=O)[C@H]1CCCN1C(=O)[C@@H](NC(=O)[C@@H](NC(=O)[C@H](CC(=O)O)NC(=O)[C@H](CCC(=O)O)NC(C)=O)C(C)C)C(C)C)C(=O)N[C@@H](CO)C(=O)N[C@@H](CCSC)C(=O)N[C@@H](CO)C(=O)N[C@@H](Cc1ccc(O)cc1)C(=O)N[C@H](C(=O)N[C@@H](Cc1c[nH]c2ccccc12)C(=O)N[C@H](C(=O)NCC(=O)N[C@@H](CCCCN)C(=O)O)[C@@H](C)O)[C@@H](C)O | 20
29 | CCCN(NC(=O)[C@H]1CCCN1C(=O)[C@@H](NC(=O)[C@@H](NC(=O)[C@H](CC(=O)O)NC(=O)[C@H](CCC(=O)O)NC(=O)[C@@H](NC(=O)[C@H](CC(=O)O)NC(C)=O)[C@@H](C)O)C(C)C)C(C)C)C(=O)N[C@@H](CO)C(=O)N[C@@H](CCSC)C(=O)N[C@@H](CO)C(=O)O | 200
30 | CCN(NC(=O)[C@H]1CCCN1C(=O)[C@@H](NC(=O)[C@@H](NC(=O)[C@H](CC(=O)O)NC(=O)[C@H](CCC(=O)O)NC(=O)[C@@H](NC(=O)[C@H](CC(=O)O)NC(C)=O)[C@@H](C)O)C(C)C)C(C)C)C(=O)Oc1ccc([N+](=O)[O-])cc1 | > 100
31 | CCCN(NC(=O)[C@H]1CCCN1C(=O)[C@@H](NC(=O)[C@@H](NC(=O)[C@H](CC(=O)O)NC(=O)[C@H](CCC(=O)O)NC(=O)[C@@H](NC(=O)[C@H](CC(=O)O)NC(C)=O)[C@@H](C)O)C(C)C)C(C)C)C(=O)Oc1ccccc1 | 8
32 | CSCC[C@H](NC(=O)[C@H](CO)NC(=O)NNC(=O)[C@H]1CCCN1C(=O)[C@@H](NC(=O)[C@@H](NC(=O)[C@H](CC(=O)O)NC(=O)[C@H](CCC(=O)O)NC(=O)[C@@H](NC(=O)[C@H](CC(=O)O)NC(C)=O)[C@@H](C)O)C(C)C)C(C)C)C(=O)N[C@@H](CO)C(=O)N[C@@H](Cc1ccc(O)cc1)C(=O)N[C@H](C(=O)N[C@@H](Cc1c[nH]c2ccccc12)C(=O)N[C@H](C(=O)NCC(=O)N[C@@H](CCCCN)C(=O)O)[C@@H](C)O)[C@@H](C)O | > 200
33 | CCCN(NC(=O)[C@H]1CCCN1C(=O)[C@@H](NC(=O)[C@@H](NC(=O)[C@H](CC(=O)O)NC(=O)[C@H](CCC(=O)O)NC(C)=O)C(C)C)C(C)C)C(=O)Oc1ccc([N+](=O)[O-])cc1 | 6
34 | CCCN(NC(=O)[C@H]1CCCN1C(=O)[C@@H](NC(=O)[C@@H](NC(=O)[C@H](CC(=O)O)NC(=O)[C@H](CCC(=O)O)NC(=O)[C@@H](NC(=O)[C@H](CC(=O)O)NC(C)=O)[C@@H](C)O)C(C)C)C(C)C)C(=O)c1ccc(/N=N\c2ccc([N+](=O)[O-])cc2)cc1 | > 100
